Measurements as given in US11434227B2, “Broad spectrum antibacterial activity of novel bisbenzimidazoles targeting topoisomerase IA and the synergistic composition of bisbenzimidazole with efflux pump inhibitors against pathogenic bacteria” (Jawaharlal Nehru University (JNU), priority 2016, dated 2022).
Converted amounts (≈) assume the structure as drawn.

Key:
[1] = test system: Acinetobacter baumannii (AB387); assay: Susceptibility (MIC50/MIC90), broth microdilution
Procedure: (§1) MICs were determined by the broth microdilution method according to CLSI methods (Clinical and Laboratory Standards Institute, 2005). Inoculants were incubated at 37° C. on cation adjusted Mueller Hinton (MH) Broth for 18 to 24 h. Compound were dissolved in media to 10 doubling dilutions from 128 to 0.125 μg/mL. All the bacterial strains were grown in 96 well plate with low evaporation lid (Falcon, Becton Dickinson) in presence of derivatives of benzimidazoles at 0.125, 0.25, 0.5, 1, 2, 4, 8, 16, 32, 64, 128, 256 μg/mL concentrations. […] Plates were read by Tecan Micro-plate Reader at 600 nm.

Staphylococcus sp. (976) = assay: Susceptibility (MIC50/MIC90), broth microdilution
Procedure: as §1

[2] = test system: Mycobacterium tuberculosis H37Rv (virulent); assay: Susceptibility of Mycobacterium tuberculosis strains (MIC90); format: cell-based
E. coli K12 mutant ΔemrA = assay: Susceptibility of E. coli K12 and mutants (MIC90); settings: Escherichia coli
Procedure: as §1

[3] = test system: Pseudomonas aeruginosa (MTCC 366); assay: Susceptibility (MIC50/MIC90), broth microdilution; settings: MTCC366
Procedure: as §1

[4] = test system: Mycobacterium tuberculosis H37Ra (avirulent); assay: Susceptibility of Mycobacterium tuberculosis strains (MIC90); format: cell-based
Enterococcus sp. (1121) = assay: Susceptibility (MIC50/MIC90), broth microdilution
Procedure: as §1

Enterococcus sp. (432) = assay: Susceptibility (MIC50/MIC90), broth microdilution
Procedure: as §1

[5] = test system: Klebsiella planticola (K235); assay: Susceptibility (MIC50/MIC90), broth microdilution
Procedure: as §1

E. coli K12 mutant ΔtolC = assay: Susceptibility of E. coli K12 and mutants (MIC90); settings: Escherichia coli
Procedure: as §1

[6] = test system: Pseudomonas aeruginosa (MTCC1688); assay: Susceptibility (MIC50/MIC90), broth microdilution
Procedure: as §1

E. coli K12 mutant ΔompC = assay: Susceptibility of E. coli K12 and mutants (MIC90); settings: Escherichia coli
Procedure: as §1

E. coli K12 = assay: Susceptibility of E. coli K12 and mutants (MIC90); settings: Escherichia coli
Procedure: as §1

[7] = test system: Escherichia coli (ATCC 25922); assay: Susceptibility (MIC, PAE, MBC), broth microdilution; settings: Escherichia coli, ATCC25922, Escherichia coli (ATCC 25922); Table 2
[8] = test system: Salmonella typhimurium (MTCC 1251); assay: Susceptibility (MIC50/MIC90), broth microdilution; settings: Salmonella enterica
Procedure: as §1

M. tuberculosis = assay: Effect on virulent and avirulent strains of M. tuberculosis; format: cell-based, Mycobacterium tuberculosis
[9] = test system: Acinetobacter baumannii (AB312); assay: Susceptibility (MIC50/MIC90), broth microdilution
Procedure: as §1

[10] = test system: Shigella flexineri (MTCC1457); assay: Susceptibility (MIC50/MIC90), broth microdilution; format: cell-based
[11] = test system: Acinetobacter baumannii (MTCC1920); assay: Susceptibility (MIC50/MIC90), broth microdilution
Procedure: as §1

[12] = test system: Klebsiella planticola (MTCC 2272); assay: Susceptibility (MIC50/MIC90), broth microdilution; settings: MTCC2272
Procedure: as §1

[13] = test system: Salmonella typhimurium (St412); assay: Susceptibility (MIC50/MIC90), broth microdilution; settings: Salmonella enterica
Procedure: as §1

E. coli K12 mutant ΔacrA = assay: Susceptibility of E. coli K12 and mutants (MIC90); settings: Escherichia coli
Procedure: as §1

[14] = test system: Klebsiella planticola (K1164); assay: Susceptibility (MIC50/MIC90), broth microdilution
Procedure: as §1

Staphylococcus sp. (982) = assay: Susceptibility (MIC50/MIC90), broth microdilution
Procedure: as §1

[15] = test system: E. coli K12 mutant ΔTopIA; assay: Susceptibility of E. coli K12 and mutants (MIC90); settings: Escherichia coli
Procedure: as §1

Escherichia coli 385 = assay: Susceptibility (MIC50/MIC90), broth microdilution
Procedure: as §1

Enterococcus sp. (1367) = assay: Susceptibility (MIC50/MIC90), broth microdilution
Procedure: as §1

[16] = test system: E. coli K12 mutant ΔTopIB; assay: Susceptibility of E. coli K12 and mutants (MIC90); settings: Escherichia coli
Procedure: as §1

Escherichia coli 392 = assay: Susceptibility (MIC50/MIC90), broth microdilution
Procedure: as §1

Enterococcus sp. (2105) = assay: Susceptibility (MIC50/MIC90), broth microdilution
Procedure: as §1

[17] = test system: isogenic efflux deleted strains; assay: Susceptibility of isogenic efflux deleted strains versus wild type; format: cell-based, Escherichia coli; settings: in comparison to wild type strains
Enterococcus sp.(1150) = assay: Susceptibility (MIC50/MIC90), broth microdilution
Procedure: as §1

E. coli K12 mutant ΔompF = assay: Susceptibility of E. coli K12 and mutants (MIC90); settings: Escherichia coli
Procedure: as §1

[18] = test system: Pseudomonas aeruginosa (Ps162); assay: Susceptibility (MIC50/MIC90), broth microdilution
Procedure: as §1

[19] = test system: Staphylococcus sp. (1016); assay: Susceptibility (MIC50/MIC90), broth microdilution; settings: Staphylococcus
Procedure: as §1

Enterococcus sp. (1365) = assay: Susceptibility (MIC50/MIC90), broth microdilution
Procedure: as §1

[20] = test system: Klebsiella planticola (K589); assay: Susceptibility (MIC50/MIC90), broth microdilution
Procedure: as §1

CCCCN1CCN(c2ccc3nc(-c4ccc5[nH]c(-c6ccc(OCC)cc6)nc5c4)[nH]c3c2)CC1 [SP12b, 5-(4-butylpiperazin-1-yl)-2′-(4-ethoxyphenyl)-1H,1′H-2,5′-bibenzo[d]imidazole]
MIC50 [1]: 12 µg/mL (≈ 24.3 µM)
MIC90 [1]: 16 µg/mL (≈ 32.3 µM)
MIC50 (Staphylococcus sp. (976)): < 0.25 µg/mL
MIC90 (Staphylococcus sp. (976)): 0.42 µg/mL (≈ 0.849 µM)
MIC90 [2]: 9.8 µg/mL (≈ 19.8 µM)
MIC90 (E. coli K12 mutant ΔemrA): 7.4 µg/mL (≈ 15 µM)
MIC50 [3]: 0.4 µg/mL (≈ 0.809 µM)
MIC90 [3]: 0.8 µg/mL (≈ 1.62 µM)
MIC90 [4]: 1.78 µg/mL (≈ 3.6 µM)
MIC50 (Enterococcus sp. (1121)): < 0.25 µg/mL
MIC90 (Enterococcus sp. (1121)): 0.92 µg/mL (≈ 1.86 µM)
MIC50 (Enterococcus sp. (432)): > 128 µg/mL
MIC90 (Enterococcus sp. (432)): > 128 µg/mL
MIC50 [5]: 25.9 µg/mL (≈ 52.4 µM)
MIC90 [5]: 59.5 µg/mL (≈ 120 µM)
MIC90 (E. coli K12 mutant ΔtolC): 2.8 µg/mL (≈ 5.66 µM)
MIC50 [6]: > 128 µg/mL
MIC90 [6]: 128 µg/mL (≈ 259 µM)
MIC90 (E. coli K12 mutant ΔompC): 30.9 µg/mL (≈ 62.5 µM)
MIC90 (E. coli K12): 32 µg/mL (≈ 64.7 µM)
MIC50 [7]: 9.5 µg/mL (≈ 19.2 µM)
MIC90 [7]: 24.9 µg/mL (≈ 50.3 µM)
MIC50 [8]: < 0.25 µg/mL
MIC90 [8]: 0.25 µg/mL (≈ 0.505 µM)
effect on M. tuberculosis (M. tuberculosis): effective against M. tuberculosis
MIC50 [9]: 14.6 µg/mL (≈ 29.5 µM)
MIC90 [9]: 28.6 µg/mL (≈ 57.8 µM)
MIC50 [10]: 1.24 µg/mL (≈ 2.51 µM)
MIC90 [10]: 3.01 µg/mL (≈ 6.09 µM)
MIC50 [11]: > 128 µg/mL
MIC90 [11]: 128 µg/mL (≈ 259 µM)
MIC50 [12]: > 128 µg/mL
MIC90 [12]: 128 µg/mL (≈ 259 µM)
MIC50 [13]: < 0.25 µg/mL
MIC90 [13]: 0.25 µg/mL (≈ 0.505 µM)
MIC90 (E. coli K12 mutant ΔacrA): 3.9 µg/mL (≈ 7.88 µM)
MIC50 [14]: > 128 µg/mL
MIC90 [14]: 128 µg/mL (≈ 259 µM)
MIC50 (Staphylococcus sp. (982)): > 128 µg/mL
MIC90 (Staphylococcus sp. (982)): > 128 µg/mL
MIC90 [15]: 5.7 µg/mL (≈ 11.5 µM)
MIC50 (Escherichia coli 385): 15 µg/mL (≈ 30.3 µM)
MIC90 (Escherichia coli 385): 27 µg/mL (≈ 54.6 µM)
MIC50 (Enterococcus sp. (1367)): < 0.25 µg/mL
MIC90 (Enterococcus sp. (1367)): 1 µg/mL (≈ 2.02 µM)
MIC90 [16]: 17.8 µg/mL (≈ 36 µM)
MIC50 (Escherichia coli 392): 1.8 µg/mL (≈ 3.64 µM)
MIC90 (Escherichia coli 392): 60 µg/mL (≈ 121 µM)
MIC50 (Enterococcus sp. (2105)): 3.7 µg/mL (≈ 7.48 µM)
MIC90 (Enterococcus sp. (2105)): 9.08 µg/mL (≈ 18.4 µM)
sensitisation of efflux deleted strains [17]: more sensitised
MIC50 (Enterococcus sp.(1150)): < 0.25 µg/mL
MIC90 (Enterococcus sp.(1150)): 2 µg/mL (≈ 4.04 µM)
MIC90 (E. coli K12 mutant ΔompF): 30.9 µg/mL (≈ 62.5 µM)
MIC50 [18]: 40.5 µg/mL (≈ 81.9 µM)
MIC90 [18]: 70.3 µg/mL (≈ 142 µM)
MIC50 [19]: < 0.25 µg/mL
MIC90 [19]: 0.92 µg/mL (≈ 1.86 µM)
MIC50 (Enterococcus sp. (1365)): < 0.25 µg/mL
MIC90 (Enterococcus sp. (1365)): 2 µg/mL (≈ 4.04 µM)
MIC50 [20]: 3.4 µg/mL (≈ 6.87 µM)
MIC90 [20]: 6.8 µg/mL (≈ 13.7 µM)
